# Experimental data: US20040005537A1, “Method of identifying toxic agents using differential gene expression” (priority 2000, published 2004)
# Test system: rat heart tissue
# Experiment: GENECALLING differential gene expression analysis after dosing of serotonin modulating agents
# Assay type: in vivo, Sprague Dawley rats
# Summary of the method: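 GENECALLING profiling of cDNA from total RNA, keeping gene fragments modulated beyond ±1.5-fold. Tissue collected 24 h after final dosing of serotonin modulating agents; control rats received sterile water or canola oil.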
smiles,measurement,setting,value
CNCCC(Oc1ccc(C(F)(F)F)cc1)c1ccccc1 (stereo not shown) [fluoxetine],"Effects on Transcription Level: Novel gene fragment, 467 bp, 94% SI to mouse gelsolin [J04953]",CARDIOTOX 70,−3.8 fold
same,"Effects on Transcription Level: Novel gene fragment, 535 bp, 90% SI to mouse slow/cardiac troponin C [M29793]",CARDIOTOX 71,−2.0 fold
same,"Effects on Transcription Level: Novel gene fragment, 445 bp, 85% SI to human skeletal muscle alpha 2 actinin [M86406]",CARDIOTOX 72,−1.6 fold
same,"Effects on Transcription Level: Novel gene fragment, 246 bp, 89% SI to mouse ponsin-1 [AF078667]",CARDIOTOX 73,−2.5 fold
same,"Effects on Transcription Level: Novel gene fragment, 126 bp, 77% SI to human DNA sequence from cosmid V311G7, between markers DXS366 and DXS87 on chromosome X [Z69304]",CARDIOTOX 74,+2.0 fold
same,"Effects on Transcription Level: Novel gene fragment, 370 bp",CARDIOTOX 75,−1.9 fold
same,"Effects on Transcription Level: Novel gene fragment, 337 bp, 78% SI to novel human protein AHNAK [M80899]",CARDIOTOX 76,−2.5 fold
same,"Effects on Transcription Level: Novel gene fragment, 100 bp, 93% SI to human KIAA0750 protein [ABO18293]",CARDIOTOX 77,−7.6 fold
same,"Effects on Transcription Level: Novel gene fragment, 44 bp",CARDIOTOX 78,−5.6 fold
same,"Effects on Transcription Level: Novel gene fragment, 698 bp, 93% SI to mouse plenty-of-prolines-101 [AF062655]",CARDIOTOX 79,−2.3 fold
same,"Effects on Transcription Level: Novel gene fragment, 660 bp, 84% SI to mouse membrane protein TMS-2 [AF181685]",CARDIOTOX 80,−4.1 fold
same,"Effects on Transcription Level: Novel gene fragment, 115 bp",CARDIOTOX 81,−8.1 fold
same,"Effects on Transcription Level: Novel gene fragment, 294 bp, 95% SI to mouse Ndr1 related protein Ndr2 [AB033921]",CARDIOTOX 82,−2.5 fold
same,"Effects on Transcription Level: Novel gene fragment, 198 bp",CARDIOTOX 83,+2.5 fold
same,"Effects on Transcription Level: Novel gene fragment, 730 bp, 86% SI to mouse E800 [Y10968]",CARDIOTOX 84,−1.8 fold
same,"Effects on Transcription Level: Novel gene fragment, 294 bp, 98% SI to cysteine conjugate beta-lyase [S61960]",CARDIOTOX 85,−1.8 fold
same,Effects on Transcription Level: Aconitase,"CARDIOTOX 86, GenBank A1243266",−3.9 fold
same,Effects on Transcription Level: Ribosomal protein L7,"CARDIOTOX 87, GenBank M17422",+2.7 fold
same,Effects on Transcription Level: Ribosomal protein L9,"CARDIOTOX 88, GenBank X51706",+6.0 fold
same,Effects on Transcription Level: Ribosomal protein L12,"CARDIOTOX 89, GenBank X53504",−2.2 fold
same,"Effects on Transcription Level: 18S, 5.8S, and 28S ribosomal RNA's","CARDIOTOX 90, GenBank V01270",+7 fold
same,Effects on Transcription Level: Pyruvate dehydrogenase kinase 2 (PDK2),"CARDIOTOX 91, GenBank U10357",−11.3 fold
same,Effects on Transcription Level: D-Binding Protein (DBP),"CARDIOTOX 92, GenBank J03179",−1.5 fold
same,Effects on Transcription Level: Lipoprotein lipase,"CARDIOTOX 93, GenBank L03294",−3.7 fold
same,Effects on Transcription Level: Non-neuronal enolase,"CARDIOTOX 94, GenBank X02610",+3.1 fold
same,Effects on Transcription Level: Glycogen phosphorylase (muscle isozyme),"CARDIOTOX 95, GenBank L10669",−3.0 fold
same,Effects on Transcription Level: Cytochrome c oxidase subunit IV,"CARDIOTOX 96, GenBank X14209",+8.0 fold
same,Effects on Transcription Level: Alpha-globin,"CARDIOTOX 97, GenBank M17083",+2.9 fold
same,Effects on Transcription Level: Beta-globin,"CARDIOTOX 98, GenBank X06701",+4.0 fold
same,Effects on Transcription Level: Myoglobin,"CARDIOTOX 99, GenBank AF197916",+2.2 fold
same,Effects on Transcription Level: Titin,"CARDIOTOX 100, GenBank L38717",+1.6 fold
same,Effects on Transcription Level: Skeletal muscle actin,"CARDIOTOX 101, GenBank V01218",−13.1 fold
same,Effects on Transcription Level: Myosin light chain 2 (MLC2),"CARDIOTOX 102, GenBank M11851",+3.6 fold
same,Effects on Transcription Level: Alpha cardiac myosin heavy chain,"CARDIOTOX 103, GenBank X15938",−4.8 fold
same,Effects on Transcription Level: Troponin I,"CARDIOTOX 104, GenBank U77354",+1.6 fold
same,Effects on Transcription Level: Cardiac calsequestrin,"CARDIOTOX 105, GenBank AF001334",−2.4 fold
same,Effects on Transcription Level: Sulfated glycoprotein 2,"CARDIOTOX 106, GenBank M16975",−2.2 fold
same,Effects on Transcription Level: Aquaporin 7,"CARDIOTOX 107, GenBank AB000507",+1.8 fold
same,Effects on Transcription Level: Carnitine/acylcarnitine carrier protein,"CARDIOTOX 108, GenBank X97831",−2.6 fold
same,Effects on Transcription Level: Glu-Pro Dipeptide Repeat,"CARDIOTOX 109, GenBank U40628",−3.1 fold
same,Effects on Transcription Level: Cystatin beta,"CARDIOTOX 110, GenBank X54737",+2.5 fold
same,"Effects on Transcription Level: Novel gene fragment, 593 bp, 90% SI to human calcineurin B-like protein [Z08983]",CARDIOTOX 111,+2.1 fold
same,"Effects on Transcription Level: Novel gene fragment, 179 bp, 88% SI to human titin [X90568]",CARDIOTOX 112,−1.8 fold
same,"Effects on Transcription Level: Novel gene fragment, 700 bp, 91% SI to mouse periplakin (PPL) [AF116523]",CARDIOTOX 113,+2.1 fold
same,Effects on Transcription Level: Long chain acyl-CoA dehydrogenase (LCAD),"CARDIOTOX 114, GenBank J05029",+1.6 fold
same,Effects on Transcription Level: Sulfated glycoprotein 1 (SGP-1),"CARDIOTOX 115, GenBank M19936",−2.1 fold
same,Effects on Transcription Level: Catalase,"CARDIOTOX 116, GenBank M11670",+1.9 fold
same,Effects on Transcription Level: Alpha-fodrin (A2A) (Nonerythroid spectrin alpha subunit),"CARDIOTOX 117, GenBank AF084186",−1.6 fold
same,Effects on Transcription Level: Cardiac specific sodium channel alpha-subunit,"CARDIOTOX 118, GenBank M27902",−2.1 fold
same,Effects on Transcription Level: Glu-Pro Dipeptide Repeat,"CARDIOTOX 119, GenBank U40628",+2.7 fold
same,"Effects on Transcription Level: Novel gene fragment, 200 bp, 64% SI to human KIAA0733 protein [AB018316]",CARDIOTOX 120,−1.6 fold
same,Effects on Transcription Level: RNA polymerase II transcription factor SIII (p18 subunit),"CARDIOTOX 121, GenBank L42855",+1.8 fold
same,Effects on Transcription Level: Protein-tyrosine phosphalase (LRP),"CARDIOTOX 122, GenBank L01702",+1.5 fold
same,Effects on Transcription Level: Skeletal muscle selenoprotein W (SelW),"CARDIOTOX 123, GenBank U25264",−1.6 fold
same,Effects on Transcription Level: Sarcoplasmic reticulum 2+-Ca-ATPase,"CARDIOTOX 124, GenBank X15635",−1.8 fold
same,Effects on Transcription Level: Ribosomal protein S7,"CARDIOTOX 125, GenBank X53377",+1.3 fold
same,Effects on Transcription Level: Ribophorin I,"CARDIOTOX 126, GenBank X05300",+1.4 fold
same,Effects on Transcription Level: Beta cardiac myosin heavy chain,"CARDIOTOX 127, GenBank X15939",+1.4 fold
same,Effects on Transcription Level: ADP-ribosylation factor 1,"CARDIOTOX 128, GenBank L12380",−1.0 fold
same,Effects on Transcription Level: Laminin receptor,"CARDIOTOX 129, GenBank U04942",−1.5 fold
same,"Effects on Transcription Level: Novel gene fragment, 206 bp, 89% SI to human seryl-tRNA synthetase [X91257]",CARDIOTOX 130,+1.7 fold
same,Effects on Transcription Level: Annexin VI,"CARDIOTOX 131, GenBank X86086",+1.3 fold
same,"Effects on Transcription Level: Novel gene fragment, 325 bp, 90% SI to mouse N-RAP [U76618]",CARDIOTOX 132,+1.4 fold
same,"Effects on Transcription Level: Novel gene fragment, 61 bp (CARDIOTOX 134)",LD10 dose for three days,−1.2 fold
same,"Effects on Transcription Level: Novel gene fragment, 337 bp (CARDIOTOX 133)",LD10 dose for three days,+1.0 fold
same,"Effects on Transcription Level: Novel gene fragment, 378 bp, 88% SI to human coatomer protein (COPA) [U24105] (CARDIOTOX 138)",LD10 dose for three days,−1.1 fold
same,Effects on Transcription Level: Long chain 3-ketoacyl-CoA thiolase (CARDIOTOX 136),"LD10 dose for three days, GenBank D16479",−1.1 fold
same,Effects on Transcription Level: TATA-binding protein interacting protein 120 (TIP120) (CARDIOTOX 135),"LD10 dose for three days, GenBank D87671",+1.4 fold
same,Effects on Transcription Level: Serine protease (CARDIOTOX 139),"LD10 dose for three days, GenBank D88250",+1.5 fold
same,Effects on Transcription Level: Thymosin beta-4 (CARDIOTOX 137),"LD10 dose for three days, GenBank M34043",+1.4 fold
